Earlier results as cited in patent publication US5385929A, “[(Hydroxyphenylamino) carbonyl] pyrroles” (Warner-Lambert Company, priority 1994, dated 1995).

System: biosynthesis of cholesterol
Conditions: qualitative; described in U.S. Pat. No. 5,273,995

Compound: CC(C)c1c(C(=O)Nc2ccccc2)c(-c2ccccc2)c(-c2ccc(F)cc2)n1CC[C@@H](O)C[C@@H](O)CC(=O)O [Compound of Patent 5,273,995 (open form), [R-(R*,R*)]-2-(4-fluorophenyl)-β,δ-dihydroxy-5-(1-methylethyl)-3-phenyl-4-[(phenylamino)carbonyl]-1H-pyrrole-1-heptanoic acid]
- activity as a hypocholesterolemic agent: particularly active as a hypocholesterolemic agent
